Assay results as given in patent publication US20160355782A1, “METHOD FOR ENHANCING DIFFERENTIATION OF DOPAMINERGIC NEURONS” (Buddhist Tzu Chi Medical Foundation, priority 2015, published 2016).

System: midbrain explants
Assay: Midbrain explant cultures, TH+ cell numbers
Type: cell-based, rat
Conditions: without exogenous UCN
Description: Midbrain explants were dissected from E13.5 embryos by the method known by a person skilled in the art, for example as the protocol described by Baizabal and Covarrubias (2009) and performed with some modifications.
The dorsal midline of the explants was cut and the tissue was placed on porous (0.4 μm) transparent membrane inserts (25-mm in diameter, Nunc, Roskilde, Denmark) with the ventricular surface facing up. Inserts were then placed into six-well culture plates. Each well contained 1.5 mL of MEM medium supplemented with 10% FBS, 100 U/mL penicillin, and 100 μg/mL streptomycin. Explants were incubated at 37° C. with 5% CO2 for 4 hours, after which the explants were incubated in a serum-free DMEM/F12/N2 medium with or without UCN for 3 days. Midbrain explants were then fixed with 4% paraformaldehyde and immuno-histochemical analysis was performed.

[1] = CP-376395 in combination with astressin 2B

Compound	TH+ cell numbers in the VM of midbrain explants [1]	TH+ cell numbers in the VM of midbrain explants (astressin)
CCC(CC)Nc1cc(C)nc(Oc2c(C)cc(C)cc2C)c1C [CP-376395]	reduce	–
astressin	–	reduce
astressin 2B	reduce	–
